Assay results as given in patent US12473304B2, “Heterocyclic PAD4 inhibitors” (BRISTOL-MYERS SQUIBB COMPANY, priority 2020, dated 2025).

These molecules were tested against human PAD4 (hPAD4) (Homo sapiens (Human), UniProt Q9UM07) (assay: RFMS Human PAD4 Functional Assay 1). Conditions: RFMS assay 1; 5 nM hPAD4, 250 μM BAEE substrate, 50 μM calcium, 37° C.
Sequence of human PAD4 (hPAD4) (Q9UM07 whole entry): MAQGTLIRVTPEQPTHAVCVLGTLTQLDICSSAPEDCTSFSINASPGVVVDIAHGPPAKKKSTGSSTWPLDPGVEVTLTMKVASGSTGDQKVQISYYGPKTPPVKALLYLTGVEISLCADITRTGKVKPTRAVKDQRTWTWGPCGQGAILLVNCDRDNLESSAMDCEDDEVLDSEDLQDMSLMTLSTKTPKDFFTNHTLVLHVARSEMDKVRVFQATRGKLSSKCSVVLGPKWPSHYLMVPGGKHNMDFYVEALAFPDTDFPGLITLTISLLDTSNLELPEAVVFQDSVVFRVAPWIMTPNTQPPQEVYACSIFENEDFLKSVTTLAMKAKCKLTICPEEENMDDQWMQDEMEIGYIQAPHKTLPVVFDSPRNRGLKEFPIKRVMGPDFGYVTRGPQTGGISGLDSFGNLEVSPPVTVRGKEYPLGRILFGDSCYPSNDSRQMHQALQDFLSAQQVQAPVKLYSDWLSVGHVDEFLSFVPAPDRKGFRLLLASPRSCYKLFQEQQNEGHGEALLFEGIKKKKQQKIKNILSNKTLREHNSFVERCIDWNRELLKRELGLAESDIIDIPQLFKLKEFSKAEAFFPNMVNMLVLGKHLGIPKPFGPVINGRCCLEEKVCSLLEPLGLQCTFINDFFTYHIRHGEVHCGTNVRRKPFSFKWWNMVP
Format: biochemical
How it was run: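 Citrullination product read by RapidFire triple-quad MRM against a modified-citrulline internal standard, after TCA stop and 30 min phenyl glyoxal step at 37 °C. Reaction: 250 μM BAEE, 5 nM human PAD4, 90 min at 37 °C, pH 7.5 HEPES buffer with 50 μM calcium and 5 μM TPEN, following 30 min compound–enzyme preincubation (max 50 μM).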
With `COc1cc(C(=O)N2C[C@H](N)C[C@@H](F)C2)cn2nc(-c3cc4ccc(-c5cccc(CNS(C)(=O)=O)c5)cc4n3CC3CC3)c(C)c12` [Example 211, N-{[3-(2-{6-[(3R,5R)-3-Amino-5-fluoropiperidine-1-carbonyl]-4-methoxy-3-methylpyrazolo[1,5-a]pyridin-2-yl}-1-(cyclopropylmethyl)-1H-indol-6-yl)phenyl]methyl}methanesulfonamide] the IC50 was 1.05 µM.
Work on `COc1cccc(-c2ccc3cc(-c4nn5cc(C(=O)N6C[C@H](N)C[C@@H](F)C6)cc(OC)c5c4C)n(CC4CC4)c3c2)c1` [Example 212, (3R,5R)-1-{2-[1-(Cyclopropylmethyl)-6-(3-methoxyphenyl)-1H-indol-2-yl]-4-methoxy-3-methylpyrazolo[1,5-a]pyridine-6-carbonyl}-5-fluoropiperidin-3-amine] yielded an IC50 of 1.69 µM.
`COc1cc(C(=O)N2C[C@H](N)C[C@@H](F)C2)cn2nc(-c3cc4ccc(-c5cccc(NS(C)(=O)=O)c5)cc4n3CC3CC3)c(C)c12` [Example 213, N-[3-(2-{6-[(3R,5R)-3-Amino-5-fluoropiperidine-1-carbonyl]-4-methoxy-3-methylpyrazolo[1,5-a]pyridin-2-yl}-1-(cyclopropylmethyl)-1H-indol-6-yl)phenyl]methanesulfonamide] was tested, and the IC50 was 0.68 µM.
Work on `COc1cc(C(=O)N2C[C@H](N)C[C@@H](F)C2)cn2nc(-c3cc4ccc(-c5ccc(NC(C)=O)cc5)cc4n3CC3CC3)c(C)c12` [Example 214, N-[4-(2-{6-[(3R,5R)-3-Amino-5-fluoropiperidine-1-carbonyl]-4-methoxy-3-methylpyrazolo[1,5-a]pyridin-2-yl}-1-(cyclopropylmethyl)-1H-indol-6-yl)phenyl]acetamide] yielded an IC50 of 0.15 µM.
With `COc1cc(C(=O)N2C[C@H](N)C[C@@H](F)C2)cn2nc(-c3cc4ccc(-c5cccc(CNC(C)=O)c5)cc4n3CC3CC3)c(C)c12` [Example 215, N-{[3-(2-{6-[(3R,5R)-3-Amino-5-fluoropiperidine-1-carbonyl]-4-methoxy-3-methylpyrazolo[1,5-a]pyridin-2-yl}-1-(cyclopropylmethyl)-1H-indol-6-yl)phenyl]methyl}acetamide] the IC50 was 0.61 µM.
`COc1cc(C(=O)N2C[C@H](N)C[C@@H](F)C2)cn2nc(-c3cc4ccc(-c5ccc(NS(C)(=O)=O)cc5)cc4n3CC3CC3)c(C)c12` [Example 216, N-[4-(2-{6-[(3R,5R)-3-Amino-5-fluoropiperidine-1-carbonyl]-4-methoxy-3-methylpyrazolo[1,5-a]pyridin-2-yl}-1-(cyclopropylmethyl)-1H-indol-6-yl)phenyl]methanesulfonamide] was tested, and the IC50 was 0.27 µM.
In the case of `COc1cc(C(=O)N2C[C@H](N)C[C@@H](F)C2)cn2nc(-c3cc4ccc(-c5ccc(C(=O)N(C)C)cc5)cc4n3CC3CC3)c(C)c12` [Example 217, 4-(2-{6-[(3R,5R)-3-Amino-5-fluoropiperidine-1-carbonyl]-4-methoxy-3-methylpyrazolo[1,5-a]pyridin-2-yl}-1-(cyclopropylmethyl)-1H-indol-6-yl)-N,N-dimethylbenzamide], the IC50 is reported as 0.26 µM.
In the case of `COc1cc(C(=O)N2C[C@H](N)C[C@@H](F)C2)cn2nc(-c3cc4ccc(-c5ccc6[nH]ncc6c5)cc4n3CC3CC3)c(C)c12` [Example 218, (3R,5R)-1-{2-[1-(Cyclopropylmethyl)-6-(1H-indazol-5-yl)-1H-indol-2-yl]-4-methoxy-3-methylpyrazolo[1,5-a]pyridine-6-carbonyl}-5-fluoropiperidin-3-amine], the IC50 is reported as 0.55 µM.
With `COc1cc(C(=O)N2C[C@H](N)C[C@@H](F)C2)cn2nc(-c3cc4ccc(-c5ccc6c(cnn6C)c5)cc4n3CC3CC3)c(C)c12` [Example 219, (3R,5R)-1-{2-[1-(Cyclopropylmethyl)-6-(1-methyl-1H-indazol-5-yl)-1H-indol-2-yl]-4-methoxy-3-methylpyrazolo[1,5-a]pyridine-6-carbonyl}-5-fluoropiperidin-3-amine] the IC50 was 0.46 µM.
With `COc1cc(C(=O)N2C[C@H](N)C[C@@H](F)C2)cn2nc(-c3cc4ccc(-c5cccc(-c6nn[nH]n6)c5)cc4n3CC3CC3)c(C)c12` [Example 220, (3R,5R)-1-{2-[1-(Cyclopropylmethyl)-6-[3-(2H-1,2,3,4-tetrazol-5-yl)phenyl]-1H-indol-2-yl]-4-methoxy-3-methylpyrazolo[1,5-a]pyridine-6-carbonyl}-5-fluoropiperidin-3-amine] the IC50 was 4.34 µM.
For `COc1cc(C(=O)N2C[C@H](N)C[C@@H](F)C2)cn2nc(-c3cc4ccc(-c5ccc(CNC(C)=O)cc5)cc4n3CC3CC3)c(C)c12` [Example 221, N-{[4-(2-{6-[(3R,5R)-3-Amino-5-fluoropiperidine-1-carbonyl]-4-methoxy-3-methylpyrazolo[1,5-a]pyridin-2-yl}-1-(cyclopropylmethyl)-1H-indol-6-yl)phenyl]methyl}acetamide], the IC50 was 0.51 µM.
`COc1cc(C(=O)N2C[C@H](N)C[C@@H](F)C2)cn2nc(-c3cc4ccc(-c5cccc6[nH]ncc56)cc4n3CC3CC3)c(C)c12` [Example 222, (3R,5R)-1-{2-[1-(Cyclopropylmethyl)-6-(1H-indazol-4-yl)-1H-indol-2-yl]-4-methoxy-3-methylpyrazolo[1,5-a]pyridine-6-carbonyl}-5-fluoropiperidin-3-amine] was tested, and the IC50 was 1.01 µM.
In the case of `COc1cc(C(=O)N2C[C@H](N)C[C@@H](F)C2)cn2nc(-c3cc4ccc(-c5ccccc5C(N)=O)cc4n3CC3CC3)c(C)c12` [Example 223, 2-(2-{6-[(3R,5R)-3-Amino-5-fluoropiperidine-1-carbonyl]-4-methoxy-3-methylpyrazolo[1,5-a]pyridin-2-yl}-1-(cyclopropylmethyl)-1H-indol-6-yl)benzamide], the IC50 is reported as 0.13 µM.
`COc1cc(C(=O)N2C[C@H](N)C[C@@H](F)C2)cn2nc(-c3cc4ccc(-c5ccc(CNS(C)(=O)=O)cc5)cc4n3CC3CC3)c(C)c12` [Example 224, N-{[4-(2-{6-[(3R,5R)-3-Amino-5-fluoropiperidine-1-carbonyl]-4-methoxy-3-methylpyrazolo[1,5-a]pyridin-2-yl}-1-(cyclopropylmethyl)-1H-indol-6-yl)phenyl]methyl}methanesulfonamide] was tested, and the IC50 was 1.07 µM.
For `COc1cc(C(=O)N2C[C@H](N)C[C@@H](F)C2)cn2nc(-c3cc4ccc(-c5cc(F)c6[nH]c(=O)ccc6c5C)cc4n3CC3CC3)c(C)c12` [Example 225, 6-(2-{6-[(3R,5R)-3-Amino-5-fluoropiperidine-1-carbonyl]-4-methoxy-3-methylpyrazolo[1,5-a]pyridin-2-yl}-1-(cyclopropylmethyl)-1H-indol-6-yl)-8-fluoro-5-methyl-1,2-dihydroquinolin-2-one], the IC50 was 0.08 µM.
For `COc1cc(C(=O)N2C[C@H](N)C[C@@H](F)C2)cn2nc(-c3cc4ccc(-c5ccc(NC(C)=O)nc5)cc4n3CC3CC3)c(C)c12` [Example 226, N-[5-(2-{6-[(3R,5R)-3-Amino-5-fluoropiperidine-1-carbonyl]-4-methoxy-3-methylpyrazolo[1,5-a]pyridin-2-yl}-1-(cyclopropylmethyl)-1H-indol-6-yl)pyridin-2-yl]acetamide], the IC50 was 0.05 µM.
`COc1cc(C(=O)N2CCC[C@@H](N)C2)cn2nc(-c3cc4ccc(-c5cccc(CO)c5)cc4n3CC3CC3)c(C)c12` [Example 227, [3-(2-{6-[(3R)-3-Aminopiperidine-1-carbonyl]-4-methoxy-3-methylpyrazolo[1,5-a]pyridin-2-yl}-1-(cyclopropylmethyl)-1H-indol-6-yl)phenyl]methanol] gave an IC50 of 0.95 µM.
Molecule `COc1cc(C(=O)N2CCC[C@@H](N)C2)cn2nc(-c3cc4ccc(-c5ccc(CNC(C)=O)cc5)cc4n3CC3CC3)c(C)c12` [Example 228, N-{[4-(2-{6-[(3R)-3-Aminopiperidine-1-carbonyl]-4-methoxy-3-methylpyrazolo[1,5-a]pyridin-2-yl}-1-(cyclopropylmethyl)-1H-indol-6-yl)phenyl]methyl}acetamide] has an IC50 of 0.93 µM.
`COc1cc(C(=O)N2CCC[C@@H](N)C2)cn2nc(-c3cc4ccc(-c5ccc(C(N)=O)cc5)cc4n3CC3CC3)c(C)c12` [Example 229, 4-(2-{6-[(3R)-3-Aminopiperidine-1-carbonyl]-4-methoxy-3-methylpyrazolo[1,5-a]pyridin-2-yl}-1-(cyclopropylmethyl)-1H-indol-6-yl)benzamide] gave an IC50 of 0.13 µM.
`COc1cc(C(=O)N2CCC[C@@H](N)C2)cn2nc(-c3cc4ccc(-c5ccc(C(=O)N(C)C)cc5)cc4n3CC3CC3)c(C)c12` [Example 230, 4-(2-{6-[(3R)-3-Aminopiperidine-1-carbonyl]-4-methoxy-3-methylpyrazolo[1,5-a]pyridin-2-yl}-1-(cyclopropylmethyl)-1H-indol-6-yl)-N,N-dimethylbenzamide] gave an IC50 of 0.32 µM.
`COc1cc(C(=O)N2CCC[C@@H](N)C2)cn2nc(-c3cc4ccc(-c5ccc(NS(C)(=O)=O)cc5)cc4n3CC3CC3)c(C)c12` [Example 231, N-[4-(2-{6-[(3R)-3-Aminopiperidine-1-carbonyl]-4-methoxy-3-methylpyrazolo[1,5-a]pyridin-2-yl}-1-(cyclopropylmethyl)-1H-indol-6-yl)phenyl]methanesulfonamide] was tested, and the IC50 was 0.46 µM.
Work on `COc1cc(C(=O)N2CCC[C@@H](N)C2)cn2nc(-c3cc4ccc(-c5cccc(CNC(C)=O)c5)cc4n3CC3CC3)c(C)c12` [Example 232, N-{[3-(2-{6-[(3R)-3-Aminopiperidine-1-carbonyl]-4-methoxy-3-methylpyrazolo[1,5-a]pyridin-2-yl}-1-(cyclopropylmethyl)-1H-indol-6-yl)phenyl]methyl}acetamide] yielded an IC50 of 0.9 µM.
`COc1cc(C(=O)N2CCC[C@@H](N)C2)cn2nc(-c3cc4ccc(-c5ccccc5CO)cc4n3CC3CC3)c(C)c12` [Example 233, [2-(2-{6-[(3R)-3-Aminopiperidine-1-carbonyl]-4-methoxy-3-methylpyrazolo[1,5-a]pyridin-2-yl}-1-(cyclopropylmethyl)-1H-indol-6-yl)phenyl]methanol] was tested, and the IC50 was 0.62 µM.
